# Columns and labels:
# KM12 xenografts = experiment: KM12 subcutaneous xenograft efficacy study; type: in vivo, BALB/c nude female mice; settings: 30 mg/kg BID versus 1 mg/kg BID zurletrectinib, oral
# Experimental: KM12 and Ba/F3 LMNA-NTRK1, TRKA G595R xenografts were generated by subcutaneous injection of five and six million cells into the right flank of 6–8 weeks old BALB/c nude female mice, respectively. Treatment with zurletrectinib, selitrectinib and larotrectinib started at tumor reaching around 150 mm^3. Xenografts were randomized into different groups (8 mice per group) based on tumor size and dosed orally with zurletrectinib (0.1, 0.3, 1 mg/kg BID for KM12 models and 0.3, 1, 3 mg/kg BID for Ba/F3 models), selitrectinib (30 mg kg^−1 BID per day) and larotrectinib (30 mg kg^−1 BID) for constant 10 days or 23 days for KM12 or Ba/F3 models, respectively. Eight mice per group were included in each experiment. Randomization was conducted without utilizing a blind method. Tumors were measured twice weekly using calipers and body weight was also assessed twice weekly. At the end of each treatment, animals were euthanized. The vehicles were formulated as follows: were first dissolved in Cremophor EL/ethanol (50:50) as a 4× stock solution, vortexed, sonicated and then diluted to a 1× solution with saline before use.
# TRKA G667C = target: T1, TRKA G667C (Homo sapiens, UniProt P04629, G667C); experiment: In vitro HTRF kinase assay, recombinant TRKA G667C; type: biochemical; settings: compared to TRKA G595R
# T1 construct: purchased SignalChem Biotech Inc (Richmond, BC, Canada)
# Experimental: Recombinant kinases were purchased from SignalChem Biotech Inc (Richmond, BC, Canada). In vitro kinase assays were performed following the optimization of the HTRF Kinase Assay (Cisbio). […] ATP concentrations ranged from 1 to 10 µM based on internal optimization.
# [1] = test system: IRC LMNA-NTRK1 TRKA G595R; experiment: Proliferation, clonogenic and western blot assays, primary IRC cell line with TRKA G595R; type: cell-based; settings: primary human NTRK fusion-positive cell line with TRKA G595R
# Source text: NTRK fusion-positive colorectal cancer cell lines IRC, Kor1, and KM12 were utilized. The IRC and the KM12 cell lines were obtained from Dr. Bardelli and cultured according to the described protocols. The Kor1 cell line was obtained from Lee et al. and cultured on laminin pre-treated plates in RPMI media supplemented with 10% Fetal Bovine Serum (FBS). All cell lines were authenticated by STR and periodically screened for the presence of mycoplasma. For the mutant models, two human-derived colorectal cancer cell lines (IRC) and two mouse-derived glioma models (NLS) were used. […] Sequencing of the double mutant cell line was performed using MSK-IMPACT [25]. IRC primary cell lines were cultured with DMEM/F12 50:50 Mix (Corning) supplemented with 10% FBS. NLS Bcan-Ntrk1 Trka G598R and Bcan-Ntrk1 Trka G670C single mutants as well as double mutants NLS Bcan-Ntrk1 Trka G598R/G670A and NLS Bcan-Ntrk1 Trka G598R/G670C isogenic models were established using CRISPR/Cas9 to knock-in TRKA solvent-front and xDFG mutations into tumor cells derived from a Bcan-Ntrk1-driven glioma mouse model. […]
# CellTiter-Glo Cell Viability Assays (Promega) and crystal violet clonogenic assays were performed on primary NTRK fusion-positive colorectal cancer cell lines, mouse Ba/F3 cell lines and isogenic mouse glioma cell lines. […] Absorbance was read at 490 nm in accordance with Promega’s protocol. […]
# [2] = test system: Bcan-Ntrk1 Trka G598R/G670A; experiment: Proliferation and clonogenic assays, mouse glioma cell line; type: cell-based
# Source text: (§1) NTRK fusion-positive colorectal cancer cell lines IRC, Kor1, and KM12 were utilized. The IRC and the KM12 cell lines were obtained from Dr. Bardelli and cultured according to the described protocols. The Kor1 cell line was obtained from Lee et al. and cultured on laminin pre-treated plates in RPMI media supplemented with 10% Fetal Bovine Serum (FBS). All cell lines were authenticated by STR and periodically screened for the presence of mycoplasma. For the mutant models, two human-derived colorectal cancer cell lines (IRC) and two mouse-derived glioma models (NLS) were used. […] Sequencing of the double mutant cell line was performed using MSK-IMPACT [25]. IRC primary cell lines were cultured with DMEM/F12 50:50 Mix (Corning) supplemented with 10% FBS. NLS Bcan-Ntrk1 Trka G598R and Bcan-Ntrk1 Trka G670C single mutants as well as double mutants NLS Bcan-Ntrk1 Trka G598R/G670A and NLS Bcan-Ntrk1 Trka G598R/G670C isogenic models were established using CRISPR/Cas9 to knock-in TRKA solvent-front and xDFG mutations into tumor cells derived from a Bcan-Ntrk1-driven glioma mouse model. Trka G598R is the mouse ortholog to human TRKA G595R while Trka G670A and Trka G670C are the mouse ortholog to human TRKA G667A and TRKA G667C, respectively. Mouse p53 ^−/^− Bcan-Ntrk1 glioma cells were plated on laminin-coated plates and cultured with Neurocult Stem Cell Basal Media with Proliferation Supplements (Stem Cell Technologies). Ba/F3 cell lines stably expressing WT and mutant versions (i.e. G595R, G667C/A, V573M, F589L, F633L, F617L, G623R/E, G639R, G696A/C, G709C, V608D/M) of human TRKA, TRKB or TRKC were generated using either lentiviral transduction or standard transfection methods by a contract research organization (Kyinno, Beijing, China).
# (§2) CellTiter-Glo Cell Viability Assays (Promega) and crystal violet clonogenic assays were performed on primary NTRK fusion-positive colorectal cancer cell lines, mouse Ba/F3 cell lines and isogenic mouse glioma cell lines. For the CellTiter-Glo assays, three biological replicates were performed, with each condition being assayed in triplicate determinations. Cells were seeded in a 96-well plate in the afternoon at optimal density. […] Plates were removed from the incubator 72 h later and CellTiter-Glo reagent was added. Absorbance was read at 490 nm in accordance with Promega’s protocol. Data is presented as a survival percentage on the y-axis (mean ± STDEV) normalized to the control DMSO-treated cells deemed 100% viable. Drug concentrations on the x-axis are represented as a base 10 logarithm (LOG). For the crystal violet assays, cells were seeded in a 24-well plate at optimal densities in the afternoon. […]
# Bcan-Ntrk1 Trka G598R = experiment: as above; type: cell-based
# Source text: as §1, §2
# [3] = test system: Bcan-Ntrk1 Trka G598R/G670C; experiment: as above; type: cell-based
# Source text: as §1
# as §2, with “(LOG).” for “(LOG). For the crystal violet assays, cells were seeded in a 24-well plate at optimal densities in the afternoon.”
# (§3) I n vi t r o kinase assay, crystal violet, and western blot quantifications
# (§4) In vitro kinase assay quantification was performed using GraphPad Prism 9.
# Bcan-Ntrk1 Trka G670C = experiment: as above; type: cell-based
# Source text: as §1
# as §2, with “(LOG).” for “(LOG). For the crystal violet assays, cells were seeded in a 24-well plate at optimal densities in the afternoon.”
# as §3, §4
# [4] = Brain distribution in rats (plasma, brain, CSF by LC-MS/MS); type: in vivo, Male Sprague Dawley (SD) rats; settings: rat; for concentration at 0.5 h / concentration at 2 h / Kp at 0.5 h / Kp at 2 h: male, Sprague-Dawley, in vivo, po, 10 mg/kg; for Brain concentration (ng/g ± SD) / Brain/plasma ratio (%) / CSF concentration (ng/mL ± SD) / CSF/plasma ratio (%) / Plasma concentration (ng/mL ± SD): 10 mg/kg PO single dose
# Experimental: All […] (PK) studies in rats were conducted according to protocols approved by the Animal Care and Use Committee at InnoCare pharmacology company in China. […] For the collection of plasma, brain tissue and cerebrospinal fluid (CSF), animals were euthanized with CO2 at 0.5 and 2 h post dosing and blood samples were in EDTA-treated microtubes. Brain tissues were homogenized and immediately flash frozen (−80 °C). Blood samples and CSF were spun at 2000 × g for 15 min at 4 °C, and plasma was removed and stored at −80 °C until liquid chromatography-tandem mass spectrometry (LC-MS/MS) analysis. The agents in rat plasma, brain homogenate or CSF samples were extracted and quantified by LC-MS/MS.
# [5] = Brain concentration (ng/g ± SD)
# [6] = Plasma concentration (ng/mL ± SD)
# T1 sequence (P04629 33-796 G667C): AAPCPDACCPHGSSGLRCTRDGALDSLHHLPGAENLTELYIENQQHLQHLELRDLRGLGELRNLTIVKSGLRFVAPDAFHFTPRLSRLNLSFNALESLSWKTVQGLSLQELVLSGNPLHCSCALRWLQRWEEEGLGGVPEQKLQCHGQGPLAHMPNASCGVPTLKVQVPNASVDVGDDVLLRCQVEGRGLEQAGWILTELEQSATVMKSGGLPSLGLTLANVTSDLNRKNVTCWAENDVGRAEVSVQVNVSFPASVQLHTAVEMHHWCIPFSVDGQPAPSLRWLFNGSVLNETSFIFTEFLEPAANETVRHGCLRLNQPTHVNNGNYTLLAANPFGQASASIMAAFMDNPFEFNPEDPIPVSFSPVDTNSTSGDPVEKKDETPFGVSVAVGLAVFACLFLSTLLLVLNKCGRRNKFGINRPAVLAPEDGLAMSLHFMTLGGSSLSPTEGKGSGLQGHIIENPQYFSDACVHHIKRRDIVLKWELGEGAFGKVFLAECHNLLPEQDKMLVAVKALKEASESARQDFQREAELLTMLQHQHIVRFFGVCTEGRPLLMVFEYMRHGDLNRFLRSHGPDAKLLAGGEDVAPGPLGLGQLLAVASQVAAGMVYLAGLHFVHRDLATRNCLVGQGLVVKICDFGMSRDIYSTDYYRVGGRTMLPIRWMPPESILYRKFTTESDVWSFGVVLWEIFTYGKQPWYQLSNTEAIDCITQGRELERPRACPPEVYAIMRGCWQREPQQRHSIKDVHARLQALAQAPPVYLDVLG
molecule,measurement,setting,value
"O=C(Nc1cnn2ccc(N3CCC[C@@H]3c3cc(F)ccc3F)nc12)N1CC[C@H](O)C1 [Larotrectinib, larotrectinib]",Fold higher dose necessary to achieve the same effect on tumor growth inhibition observed with zurletrectinib,KM12 xenografts,30 fold
"C[C@@H]1CCc2ncc(F)cc2[C@H]2CCCN2c2ccn3ncc(c3n2)C(=O)N1 [Selitrectinib, selitrectinib]",Potency against TRKA G667C xDFG mutant recombinant kinase,TRKA G667C,potency was significantly reduced
same,Inhibition of growth and TRKA-mediated signaling,[1],able to inhibit the growth and TRKA-mediated signaling
same,Activity against mouse glioma cell line,[2],highly active
same,Activity against mouse glioma cell line,Bcan-Ntrk1 Trka G598R,highly active
same,Activity against mouse glioma cell line,[3],less so
same,Activity against mouse glioma cell line,Bcan-Ntrk1 Trka G670C,less so
same,Fold higher dose necessary to achieve the same effect on tumor growth inhibition observed with zurletrectinib,KM12 xenografts,30 fold
same,concentration at 0.5 h,[4]; [5],93.9 ± 23.2 ng/g
same,concentration at 2 h,[4]; [5],85.4 ± 35.4 ng/g
same,Kp at 0.5 h,[4]; Brain/plasma ratio (%),0.0403
same,Kp at 2 h,[4]; Brain/plasma ratio (%),0.0617
same,concentration at 0.5 h,[4]; CSF concentration (ng/mL ± SD),11 ± 2.12 ng/mL
same,concentration at 2 h,[4]; CSF concentration (ng/mL ± SD),9.64 ± 6.02 ng/mL
same,Kp at 0.5 h,[4]; CSF/plasma ratio (%),0.00476
same,Kp at 2 h,[4]; CSF/plasma ratio (%),0.00648
same,concentration at 0.5 h,[4]; [6],2320 ± 479 ng/mL
same,concentration at 2 h,[4]; [6],1470 ± 854 ng/mL
zurletrectinib,Potency against TRKA G667C xDFG mutant recombinant kinase,TRKA G667C,potency was significantly reduced
same,Inhibition of growth and TRKA-mediated signaling,[1],able to inhibit the growth and TRKA-mediated signaling
same,Activity against mouse glioma cell line,[2],highly active
same,Activity against mouse glioma cell line,Bcan-Ntrk1 Trka G598R,highly active
same,Activity against mouse glioma cell line,[3],less so
same,Activity against mouse glioma cell line,Bcan-Ntrk1 Trka G670C,less so
same,Brain concentration (ng/g ± SD),[4]; 0.5 h,44.5 ± 11.5 ng/g
same,Brain/plasma ratio (%),[4]; 0.5 h,7.17%
same,CSF concentration (ng/mL ± SD),[4]; 0.5 h,17.5 ± 6.00 ng/mL
same,CSF/plasma ratio (%),[4]; 0.5 h,2.81%
same,Plasma concentration (ng/mL ± SD),[4]; 0.5 h,616 ± 76.1 ng/mL
same,Brain concentration (ng/g ± SD),[4]; 2 h,96.9 ± 34.9 ng/g
same,Brain/plasma ratio (%),[4]; 2 h,15.5%
same,CSF concentration (ng/mL ± SD),[4]; 2 h,18.9 ± 5.91 ng/mL
same,CSF/plasma ratio (%),[4]; 2 h,3.04%
same,Plasma concentration (ng/mL ± SD),[4]; 2 h,610 ± 105 ng/mL
